Experimental data taken from patent US20250268877A1 (BIOGEN MA INC., priority 2020, published 2025).
In brackets after ≈: the same amount, converted by molar mass.

What was measured:
[1] = molecular target: IRAK4 (Homo sapiens (Human), UniProt Q9NWZ3); test: IRAK4 2-hour 1 mM ATP Biochemical Assay (MesoScale Detection format); details: 100 pM IRAK4, read-out: IRAK4 IC50
[2] = molecular target: MDR1 (Homo sapiens (Human), UniProt P08183); test: MDR1-MDCK assay (apparent permeability, efflux ratio); format: in vitro ADME; details: human, MDCK-MDR1, 1 μM, read-out: MDR1-MDCK_Efflux Ratio
Chain of MDR1 (P08183 whole entry): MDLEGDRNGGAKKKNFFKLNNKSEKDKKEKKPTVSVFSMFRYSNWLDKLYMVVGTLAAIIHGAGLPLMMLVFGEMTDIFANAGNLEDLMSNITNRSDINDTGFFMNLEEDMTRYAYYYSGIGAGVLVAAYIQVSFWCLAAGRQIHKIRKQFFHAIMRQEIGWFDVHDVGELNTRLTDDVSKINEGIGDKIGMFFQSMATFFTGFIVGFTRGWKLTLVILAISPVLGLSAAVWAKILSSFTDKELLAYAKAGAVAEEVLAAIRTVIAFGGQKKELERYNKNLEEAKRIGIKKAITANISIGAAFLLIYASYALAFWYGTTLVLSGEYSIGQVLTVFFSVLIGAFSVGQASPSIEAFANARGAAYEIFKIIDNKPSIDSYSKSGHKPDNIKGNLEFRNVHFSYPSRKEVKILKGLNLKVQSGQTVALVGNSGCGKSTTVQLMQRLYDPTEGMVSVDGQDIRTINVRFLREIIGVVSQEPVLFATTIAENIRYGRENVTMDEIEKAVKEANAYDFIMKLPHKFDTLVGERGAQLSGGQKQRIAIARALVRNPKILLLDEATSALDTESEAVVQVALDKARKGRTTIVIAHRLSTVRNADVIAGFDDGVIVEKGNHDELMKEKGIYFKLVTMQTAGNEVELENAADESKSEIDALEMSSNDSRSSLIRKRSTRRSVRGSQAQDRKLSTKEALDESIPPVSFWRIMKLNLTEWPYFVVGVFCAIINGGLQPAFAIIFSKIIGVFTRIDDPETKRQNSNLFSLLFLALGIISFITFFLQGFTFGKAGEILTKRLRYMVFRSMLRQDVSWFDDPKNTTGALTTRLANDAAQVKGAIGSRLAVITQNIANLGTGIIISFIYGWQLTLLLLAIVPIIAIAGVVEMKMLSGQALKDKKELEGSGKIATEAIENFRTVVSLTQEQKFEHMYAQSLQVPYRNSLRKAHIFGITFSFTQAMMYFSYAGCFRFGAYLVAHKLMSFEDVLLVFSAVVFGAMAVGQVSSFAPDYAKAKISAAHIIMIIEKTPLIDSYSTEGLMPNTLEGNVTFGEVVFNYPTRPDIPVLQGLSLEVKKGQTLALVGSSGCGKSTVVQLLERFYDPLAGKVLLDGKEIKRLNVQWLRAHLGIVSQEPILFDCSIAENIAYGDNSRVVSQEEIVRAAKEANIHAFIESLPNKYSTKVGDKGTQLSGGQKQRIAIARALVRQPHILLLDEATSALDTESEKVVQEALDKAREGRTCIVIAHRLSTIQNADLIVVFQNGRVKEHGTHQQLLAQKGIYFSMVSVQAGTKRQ

[3] = Kinetic solubility assay (CLND), potassium phosphate buffer pH 6.8; format: physicochemical; details: pH 6.8, 2% DMSO, 24 hours at ambient temperature; for solubility at 24 h: potassium phosphate buffer, pH 6.8, aqueous buffer, kinetic from dmso stock

Chain of IRAK4 (Q9NWZ3 whole entry): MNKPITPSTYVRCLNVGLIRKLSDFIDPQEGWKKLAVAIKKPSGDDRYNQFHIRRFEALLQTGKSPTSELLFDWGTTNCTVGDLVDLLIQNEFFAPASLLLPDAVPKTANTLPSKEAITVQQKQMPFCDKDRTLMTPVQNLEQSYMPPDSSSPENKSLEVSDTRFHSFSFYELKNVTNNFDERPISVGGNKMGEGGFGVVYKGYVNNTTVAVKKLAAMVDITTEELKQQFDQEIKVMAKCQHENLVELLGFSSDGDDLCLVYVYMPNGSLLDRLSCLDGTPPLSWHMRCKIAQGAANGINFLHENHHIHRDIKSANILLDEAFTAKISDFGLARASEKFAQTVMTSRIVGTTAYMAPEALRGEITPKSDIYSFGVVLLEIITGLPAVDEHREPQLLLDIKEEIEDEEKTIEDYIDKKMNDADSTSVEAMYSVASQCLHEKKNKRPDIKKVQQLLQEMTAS

SMILES | IC50 [1] | efflux ratio at 120 min, 1 μM [2] | solubility at 24 h [3] | Solubility pH 6.8 [3]
CC12CC(n3cc4cc(C(=O)Nc5cccn([C@@H]6C[C@@H]6F)c5=O)c(OC5CCC5)nc4n3)(CO1)C2 (racemic) [Example 25, 6-cyclobutoxy-N-(1-(cis-2-fluorocyclopropyl)-2-oxo-1,2-dihydropyridin-3-yl)-2-(1-methyl-2-oxabicyclo[2.1.1]hexan-4-yl)-2H-pyrazolo[3,4-b]pyridine-5-carboxamide] | 0.3 nM | 2.71 | 29.2 µg/mL (≈ 60.9 µM) | –
COCC12CC(n3cc4cc(C(=O)Nc5cccn([C@@H]6C[C@H]6F)c5=O)c(OC5CCC5)nc4n3)(CO1)C2 (single isomer, unassigned) [Example 65] | 0.8 nM | 3.22 | 13 µg/mL (≈ 25.5 µM) | –
COCC12CC(n3cc4cc(C(=O)Nc5cccn([C@H]6C[C@@H]6F)c5=O)c(OC5CCC5)nc4n3)(CO1)C2 (single isomer, unassigned) [Example 66] | 0.8 nM | 3.38 | 12.3 µg/mL (≈ 24.1 µM) | –
O=C(Nc1cccn([C@H]2C[C@H]2F)c1=O)c1cc2cn([C@@]34CC[C@@H](C3)OC4)nc2nc1OC1CC1 (single isomer, unassigned) [Example 87] | 0.2 nM | 7.93 | 62.4 µg/mL (≈ 134 µM) | –
C[C@@H]1C[C@@H]1n1cccc(NC(=O)c2cc3cn([C@@]45CC[C@@H](C4)OC5)nc3nc2OC2CC2)c1=O (single isomer, unassigned) [Example 93] | 0.5 nM | 2.5 | – | 47.6 ug/mL
CC12CC(n3cc4cc(C(=O)Nc5cccn(C6CC6)c5=O)c(OC5CCC5)cc4n3)(CO1)C2 [Example 1, 6-Cyclobutoxy-N-(1-cyclopropyl-2-oxo-1,2-dihydropyridin-3-yl)-2-(1-methyl-2-oxabicyclo[2.1.1]hexan-4-yl)-2H-indazole-5-carboxamide] | 0.9 nM | – | 71 µg/mL (≈ 154 µM) | –
C[C@@]12CC[C@@](n3cc4cc(C(=O)Nc5cccn(C6CC6)c5=O)c(OC5CCC5)nc4n3)(CO1)C2 [Example 6, 6-cyclobutoxy-N-(1-cyclopropyl-2-oxo-1,2-dihydropyridin-3-yl)-2-((1S,4S)-1-methyl-2-oxabicyclo[2.2.1]heptan-4-yl)-2H-pyrazolo[3,4-b]pyridine-5-carboxamide] | 0.4 nM | 1.59 | 5.57 µg/mL (≈ 11.7 µM) | –
C[C@]12CC[C@](n3cc4cc(C(=O)Nc5cccn(C6CC6)c5=O)c(OC5CCC5)nc4n3)(CO1)C2 [Example 7, 6-cyclobutoxy-N-(1-cyclopropyl-2-oxo-1,2-dihydropyridin-3-yl)-2-((1R,4R)-1-methyl-2-oxabicyclo[2.2.1]heptan-4-yl)-2H-pyrazolo[3,4-b]pyridine-5-carboxamide] | 0.7 nM | 1.43 | 10.3 µg/mL (≈ 21.6 µM) | –
CC(C)Oc1nc2nn(C3CCOCC3)cc2cc1C(=O)Nc1cccn(C2CC2)c1=O [Example 13] | 0.7 nM | 3.41 | 19.8 µg/mL (≈ 45.3 µM) | –
CC[C@@H](C)Oc1nc2nn(C34COC(C)(C3)C4)cc2cc1C(=O)Nc1cccn(C2CC2)c1=O [Example 14, (R)-6-(sec-butoxy)-N-(1-cyclopropyl-2-oxo-1,2-dihydropyridin-3-yl)-2-(1-methyl-2-oxabicyclo[2.1.1]hexan-4-yl)-2H-pyrazolo[3,4-b]pyridine-5-carboxamide] | 1.4 nM | 2.27 | 43 µg/mL (≈ 92.8 µM) | –
CC(C)Oc1nc2nn([C@H]3CCCOC3)cc2cc1C(=O)Nc1cccn(C2CC2)c1=O [Example 16, (S)—N-(1-cyclopropyl-2-oxo-1,2-dihydropyridin-3-yl)-6-isopropoxy-2-(tetrahydro-2H-pyran-3-yl)-2H-pyrazolo[3,4-b]pyridine-5-carboxamide] | 0.2 nM | 2.09 | 44.6 µg/mL (≈ 102 µM) | –
CC12CC(n3cc4cc(C(=O)Nc5cccn(C6CC6)c5=O)c(OC5CCC5)nc4n3)(CO1)C2 [Example 24, 6-cyclobutoxy-N-(1-cyclopropyl-2-oxo-1,2-dihydropyridin-3-yl)-2-(1-methyl-2-oxabicyclo[2.1.1]hexan-4-yl)-2H-pyrazolo[3,4-b]pyridine-5-carboxamide] | 0.4 nM | 2.53 | 5.53 µg/mL (≈ 12 µM) | –
CC12CC(n3cc4cc(C(=O)Nc5cccn([C@@H]6C[C@@H]6F)c5=O)c(OC5CCC5)nc4n3)(CO1)C2 [Example 26, 6-cyclobutoxy-N-(1-((1R,2S)-2-fluorocyclopropyl)-2-oxo-1,2-dihydropyridin-3-yl)-2-(1-methyl-2-oxabicyclo[2.1.1]hexan-4-yl)-2H-pyrazolo[3,4-b]pyridine-5-carboxamide] | 7.3 nM | 4.05 | 1.6 µg/mL (≈ 3.34 µM) | –
CC(C)Oc1nc2nn(C34COC(C3)C4)cc2cc1C(=O)Nc1cccn(C2CC2)c1=O [Example 28, 2-(2-oxabicyclo[2.1.1]hexan-4-yl)-N-(1-cyclopropyl-2-oxo-1,2-dihydropyridin-3-yl)-6-isopropoxy-2H-pyrazolo[3,4-b]pyridine-5-carboxamide] | 0.4 nM | 4.72 | 2.7 µg/mL (≈ 6.2 µM) | –
COCC12CCC(n3cc4cc(C(=O)Nc5cccn(C6CC6)c5=O)c(OC(C)C)nc4n3)(CO1)C2 (centres unmarked) [Example 29, N-(1-cyclopropyl-2-oxo-1,2-dihydropyridin-3-yl)-6-isopropoxy-2-(1-(methoxymethyl)-2-oxabicyclo[2.2.1]heptan-4-yl)-2H-pyrazolo[3,4-b]pyridine-5-carboxamide] | 0.2 nM | 2.79 | 74.2 µg/mL (≈ 150 µM) | –
CC(C)Oc1nc2nn(C34COC(C)(C3)C4)cc2cc1C(=O)Nc1ccnn(C2CC2)c1=O [Example 46, N-(2-cyclopropyl-3-oxo-2,3-dihydropyridazin-4-yl)-6-isopropoxy-2-(1-methyl-2-oxabicyclo[2.1.1]hexan-4-yl)-2H-pyrazolo[3,4-b]pyridine-5-carboxamide] | 0.4 nM | 0.88 | 0.2 µg/mL (≈ 0.444 µM) | –

Second part, the compound after the results:

IC50 [1] | efflux ratio at 120 min, 1 μM [2] | solubility at 24 h [3] | Solubility pH 6.8 [3] | SMILES
0.8 nM | 3.71 | 60.5 µg/mL (≈ 122 µM) | – | COCC12CC(n3cc4cc(C(=O)Nc5cccn([C@@H]6C[C@H]6F)c5=O)c(OC(C)C)cc4n3)(CO1)C2 (single isomer, unassigned) [Example 55]
0.8 nM | 3.31 | 63.9 µg/mL (≈ 129 µM) | – | COCC12CC(n3cc4cc(C(=O)Nc5cccn([C@H]6C[C@@H]6F)c5=O)c(OC(C)C)cc4n3)(CO1)C2 (single isomer, unassigned) [Example 56]
1.5 nM | 4.05 | 52.3 µg/mL (≈ 103 µM) | – | COCC12CC(n3cc4cc(C(=O)Nc5cccn([C@H]6C[C@@H]6F)c5=O)c(OC5CCC5)cc4n3)(CO1)C2 (single isomer, unassigned) [Example 58]
0.5 nM | 1.75 | 52.9 µg/mL (≈ 110 µM) | – | CC(C)Oc1cc2nn([C@@]34CC[C@@](C)(C3)OC4)cc2cc1C(=O)Nc1cccn([C@H]2C[C@@H]2F)c1=O (single isomer, unassigned) [Example 60]
0.5 nM | 1.43 | 51.5 µg/mL (≈ 107 µM) | – | CC(C)Oc1cc2nn([C@]34CC[C@](C)(C3)OC4)cc2cc1C(=O)Nc1cccn([C@@H]2C[C@H]2F)c1=O (single isomer, unassigned) [Example 61]
0.6 nM | 1.6 | 56.1 µg/mL (≈ 117 µM) | – | CC(C)Oc1cc2nn([C@]34CC[C@](C)(C3)OC4)cc2cc1C(=O)Nc1cccn([C@H]2C[C@@H]2F)c1=O (single isomer, unassigned) [Example 62]
0.5 nM | 5.06 | 58.8 µg/mL (≈ 118 µM) | – | COCC12CC(n3cc4cc(C(=O)Nc5cccn([C@@H]6C[C@H]6F)c5=O)c(OC(C)C)nc4n3)(CO1)C2 (single isomer, unassigned) [Example 63]
0.5 nM | 1.59 | 7.9 µg/mL (≈ 17.1 µM) | – | CC(C)Oc1cc2nn([C@]34CC[C@](C)(C3)OC4)cc2cc1C(=O)Nc1cccn(C2CC2)c1=O [Example 3, N-(1-cyclopropyl-2-oxo-1,2-dihydropyridin-3-yl)-6-isopropoxy-2-((1R,4R)-1-methyl-2-oxabicyclo[2.2.1]heptan-4-yl)-2H-indazole-5-carboxamide]
0.2 nM | 2.5 | 61.8 µg/mL (≈ 125 µM) | – | COC[C@]12CC[C@](n3cc4cc(C(=O)Nc5cccn(C6CC6)c5=O)c(OC(C)C)nc4n3)(CO1)C2 [Example 31, N-(1-cyclopropyl-2-oxo-1,2-dihydropyridin-3-yl)-6-isopropoxy-2-((1R,4R)-1-(methoxymethyl)-2-oxabicyclo[2.2.1]heptan-4-yl)-2H-pyrazolo[3,4-b]pyridine-5-carboxamide]
1.3 nM | 0.73 | 1.2 µg/mL (≈ 2.67 µM) | – | CC(C)Oc1cc2nn(C34COC(C)(C3)C4)cc2cc1C(=O)Nc1ccnn(C2CC2)c1=O [Example 45, N-(2-cyclopropyl-3-oxo-2,3-dihydropyridazin-4-yl)-6-isopropoxy-2-(1-methyl-2-oxabicyclo[2.1.1]hexan-4-yl)-2H-indazole-5-carboxamide]
0.4 nM | 5.31 | 34 µg/mL (≈ 68.5 µM) | – | COCC12CC(n3cc4cc(C(=O)Nc5cccn([C@H]6C[C@H]6F)c5=O)c(OC(C)C)cc4n3)(CO1)C2 [Example 67, N-(1-((1S,2R)-2-fluorocyclopropyl)-2-oxo-1,2-dihydropyridin-3-yl)-6-isopropoxy-2-(1-(methoxymethyl)-2-oxabicyclo[2.1.1]hexan-4-yl)-2H-indazole-5-carboxamide]
